Measured values taken from paper PMC11859181, “Alternaria alternata (Fr) Keissl Crude Extract Inhibits HIV Subtypes and Integrase Drug-Resistant Strains at Different Stages of HIV Replication” (Pharmaceuticals, 2025).
Converted amounts (≈) assume the structure as drawn. Read-outs that look alike come from different tables or passages of the source.

Assays:
[1] = MTT cell viability and cytotoxicity assay; format: cell-based; details: human, TZM-bl cells
Protocol: A. alternata crude extract cell cytotoxicity and viability were assessed by MTT (3-[4, 5-dimethylthiazol-2-yl]-2, 5-diphenyltetrazolium bromide) cell viability assay using the CYQUANT MTT cell proliferation kit (Thermo Fisher Scientific, Waltham, MA, USA). A 96-well culture plate was seeded with 15,000 TZM-bl cells/200 µL of DMEM per well and incubated at 37 °C with 5% CO2.). Following this, 10 µL of the drug control azidothymidine (NIH AIDS Research and Reference Reagent Programme) and the A. alternata crude extract were diluted five-fold, and control wells where neither the control drug AZT nor the crude extract was added were followed by incubation at 37 °C with 5% CO2 and 95% humidity for 48 h. Ten microlitres of 12 mM of MTT solution was added to each well and incubated for 4 h at 37 °C with 5% CO2 and 95% humidity. Then, 50 µL of 100% DMSO were added to each well and incubated for 10 min. The absorbance was then measured at a wavelength of 540 nm using the Victor Nivo microplate reader (PerkinElmer, Waltham, MA, USA). The percentage of cell viability was calculated using the formula below:%Cell viability = (Sample absorbance − media control)/(Mean media control absorbance) × 100
The drug control azidothymidine and A. alternata crude extract CC50 (50% cytotoxic concentration) were determined using GraphPad Prism software (v.5) by dose-response curve.

[2] = test system: PC 148 (subtype A) HIV-1 virus; assay: microbe, parasite or virus in culture; format: cell-based; details: Human immunodeficiency virus 1, TZM-bl
[3] = test system: MC 2297 (subtype A) HIV-1 virus; assay: microbe, parasite or virus in culture; format: cell-based; details: Human immunodeficiency virus 1, TZM-bl
[4] = test system: pNL4.3 (subtype B) HIV-1 virus; assay: Luciferase-based antiviral assay, pNL4.3 (wild type); format: cell-based
[5] = test system: YU2 (subtype B) HIV-1 virus; assay: microbe, parasite or virus in culture; format: cell-based; details: Human immunodeficiency virus 1, TZM-bl
[6] = test system: CM7 (subtype C) HIV-1 virus; assay: microbe, parasite or virus in culture; format: cell-based; details: Human immunodeficiency virus 1, TZM-bl
[7] = test system: CM9 (subtype C) HIV-1 virus; assay: microbe, parasite or virus in culture; format: cell-based; details: Human immunodeficiency virus 1, TZM-bl
[8] = test system: PC 60 (subtype D) HIV-1 virus; assay: microbe, parasite or virus in culture; format: cell-based; details: Human immunodeficiency virus 1, TZM-bl
[9] = test system: PC 178 (subtype D) HIV-1 virus; assay: microbe, parasite or virus in culture; format: cell-based; details: Human immunodeficiency virus 1, TZM-bl
[10] = test system: integrase drug-resistant strain T66K; assay: microbe, parasite or virus in culture; format: cell-based, HIV-1; details: for IC50: Human immunodeficiency virus 1, TZM-bl, read-out: IC50 (T66K); for inhibition at 300 µg/mL: Human immunodeficiency virus 1, read-out: inhibition of HIV replication; for fold change (FC) T66K: drug-resistant strain IC50/wild-type IC50
[11] = test system: integrase drug-resistant strain S230R; assay: microbe, parasite or virus in culture; format: cell-based, HIV-1; details: for IC50: Human immunodeficiency virus 1, TZM-bl, read-out: IC50 (S230R); for inhibition at 300 µg/mL: Human immunodeficiency virus 1, read-out: inhibition of HIV replication; for fold change (FC) S230R: drug-resistant strain IC50/wild-type IC50
[12] = test system: integrase drug-resistant strain T66K; parameters: method as in PMID 18625269; details: previously reported; cited from earlier work
[13] = test system: integrase drug-resistant strain S230R; details: previously reported; cited from earlier work
[14] = Human immunodeficiency virus 1, read-out: IC50 (WT)

Structure (SMILES)	viability at 48 h [1] [%]	CC50 at 48 h ([1]; 48 h, triplicate) [µg/mL]	IC50 [2] [µg/mL]	IC50 [3] [µg/mL]	IC50 ([4]; Human immunodeficiency virus 1, TZM-bl) [µg/mL]	IC50 [5] [µg/mL]	IC50 [6] [µg/mL]	IC50 [7] [µg/mL]	IC50 [8] [µg/mL]	IC50 [9] [µg/mL]	IC50 [4, 14] [µg/mL]	IC50 [10] [µg/mL]	inhibition at 300 µg/mL [10] [%]	fold change (FC) T66K [10]	IC50 [11] [µg/mL]	inhibition at 300 µg/mL [11] [%]	fold change (FC) S230R [11]	FC conferred by T66K mutation [12]	FC in susceptibility conferred by S230R mutation [13]
Cc1cn([C@H]2C[C@H](N=[N+]=[N-])[C@@H](CO)O2)c(=O)[nH]c1=O [Azidothymidine, azidothymidine]	> 80	385 ± 6.29 (≈ 1440 µM)	0.0403 ± 0.002 (≈ 0.151 µM)	0.0138 ± 0.001 (≈ 0.0518 µM)	0.0338 ± 0.004 (≈ 0.126 µM)	0.0423 ± 0.004 (≈ 0.158 µM)	0.058 ± 0.009 (≈ 0.217 µM)	0.0924 ± 0.007 (≈ 0.346 µM)	0.078 ± 0.005 (≈ 0.292 µM)	0.0813 ± 0.003 (≈ 0.304 µM)									
Cc1nnc(C(=O)NC(C)(C)c2nc(C(=O)NCc3ccc(F)cc3)c(O)c(=O)n2C)o1 [Raltegravir, raltegravir]											0.0364 ± 0.001 (≈ 0.082 µM)	0.479 ± 0.078 (≈ 1.08 µM)	100	13.15	0.0475 ± 0.0016 (≈ 0.107 µM)	100	1.305	9.6	1.52
C[C@@H]1CCO[C@H]2Cn3cc(C(=O)NCc4ccc(F)cc4F)c(=O)c(O)c3C(=O)N12 [Dolutegravir, dolutegravir]											0.175 ± 0.019 (≈ 0.418 µM)	0.327 ± 0.031 (≈ 0.78 µM)	100	1.864	0.383 ± 0.04 (≈ 0.914 µM)	100	2.166	2	3.85
